This is an account of results in patent US8664244B2, “Compounds as c-Met kinase inhibitors” (Advenchen Pharmaceuticals, LLC, priority 2010, dated 2014).

Like-named read-outs stand apart in the source and are kept apart here.

Common to all, as to assay type: cell-based
One experiment relates to PC-3M. Kind of experiment: Tumor cell line inhibition, PC-3M. As to conditions: PC-3M tumor cell line.
A further experiment deals with A549. Description: Tumor cell line inhibition, A549.
For another experiment, the system named is SHG44. Description: Tumor cell line inhibition, SHG44.

By IC50 is commonly meant the concentration needed to halve the response being measured. Read a high IC50 as a need for much substance. With `COc1ccc(COC(=O)NC2(COc3cc4nccc(Oc5ccc(NC(=O)C6(C(=O)Nc7ccc(F)c(F)c7)CC6)c(F)c5)c4cc3OC)CC2)cc1` [Example 7, 4-methoxybenzyl 1-((4-(4-(1-(3,4-difluorophenylcarbamoyl)cyclopropanecarboxamido)-3-fluoro-phenoxy)-6-methoxyquinolin-7-yloxy)methyl)cyclopropylcarbamate], the half-inhibitory concentration (IC50) with PC-3M (Homo sapiens) amounted to 51 µM; in the experiment on A549 (Homo sapiens) it was 36 µM; in the experiment with SHG44 (SHG-44), 39.1 µM.
For `COc1cc2c(Oc3ccc(N(C(=O)C4(C(N)=O)CC4)c4ccc(F)cc4)cc3F)ccnc2cc1OCC1(NC2CCOCC2)CC1` [Example 3, N-(3-fluoro-4-(6-methoxy-7-((1-(tetrahydro-2H-pyran-4-ylamino)cyclopropyl)methoxy)quinolin-4-yloxy)phenyl)-N-(4-fluorophenyl)cyclopropane-1,1-dicarboxamide], the IC50 is 4.89 µM in the experiment on PC-3M (Homo sapiens), 0.0407 µM with A549 (Homo sapiens) and 0.199 µM with SHG44 (SHG-44).
With `COc1ccc(COC(=O)NC2(COc3cc4nccc(Oc5ccc(NC(=O)C6(C(=O)Nc7ccc(F)cc7)CC6)cc5F)c4cc3OC)CC2)cc1` [Example 1, 4-methoxybenzyl-1-((4-(2-fluoro-4-(1-(4-fluorophenylcarbamoyl)cyclopropanecarboxamido)-phenoxy)-6-methoxyquinolin-7-yloxy)methyl)cyclopropylcarbamate], the 50% inhibitory concentration (IC50) was determined as 35.6 µM in the experiment on PC-3M, 3.32 µM with A549 and 5.74 µM in the experiment on SHG44.
As to `COc1ccc(COC(=O)NC2(COc3cc4nccc(Oc5ccc(NC(=O)C6(C(=O)Nc7ccccc7)CC6)cc5F)c4cc3OC)CC2)cc1` [Example 13, 4-methoxybenzyl 1-((4-(4-(1-(phenylcarbamoyl)cyclopropanecarboxamido)-2-fluoro-phenoxy)-6-methoxyquinolin-7-yloxy)methyl)cyclopropylcarbamate], the IC50 is 53.2 µM in the experiment on PC-3M (Homo sapiens), 45.4 µM in the experiment on A549 (Homo sapiens) and 26 µM in the experiment with SHG44 (SHG-44).
Regarding `COc1cc2c(Oc3ccc(N(C(=O)C4(C(N)=O)CC4)c4ccccc4)c(F)c3)ccnc2cc1OCC1(N)CC1` [Example 14, N-(4-(7-((1-aminocyclopropyl)methoxy)-6-methoxyquinolin-4-yloxy)-2-fluorophenyl)-N-(phenyl)cyclopropane-1,1-dicarboxamide], the IC50 was determined as 12.5 µM with PC-3M (Homo sapiens), 0.549 µM with A549 (Homo sapiens) and 1.41 µM with SHG44 (SHG-44).
Turning to `COc1cc2c(Oc3ccc(N(C(=O)C4(C(N)=O)CC4)c4ccc(F)c(F)c4)c(F)c3)ccnc2cc1OCC1(NC2CCOCC2)CC1` [Example 9, N-(3,4-difluorophenyl)-N-(2-fluoro-4-(6-methoxy-7-((1-(tetrahydro-2H-pyran-4-ylamino)-cyclopropyl)methoxy)quinolin-4-yloxy)phenyl)cyclopropane-1,1-dicarboxamide], the figures for the half-inhibitory concentration (IC50) with PC-3M (Homo sapiens), with A549 (Homo sapiens) and in the experiment with SHG44 (SHG-44) were 6.02 µM, 2.22 µM and 2.18 µM, respectively.
On to `COc1cc2c(Oc3ccc(N(C(=O)C4(C(N)=O)CC4)c4ccc(F)c(F)c4)c(F)c3)ccnc2cc1OCC1(NCC2CC2)CC1` [Example 11, N-(4-(7-((1-(cyclopropylmethylamino)cyclopropyl)methoxy)-6-methoxyquinolin-4-yloxy)-2-fluorophenyl)-N-(3,4-difluorophenyl)cyclopropane-1,1-dicarboxamide], for which the half-maximal inhibitory concentration (IC50) turned out to be 16.1 µM with PC-3M (Homo sapiens), 0.0659 µM with A549 (Homo sapiens) and 0.589 µM in the experiment on SHG44 (SHG-44).
